Key:
Plasmodium falciparum [1] = experiment: ST_JUDE: Plasmodium falciparum 3D7 EC50 (uM) as measured by SYBR green dye; type: functional, organism-based
Plasmodium falciparum [2] = experiment: ST_JUDE: Plasmodium falciparum K1 EC50 (uM) as measured by SYBR green dye; type: functional, organism-based

SMILES	EC50 (Plasmodium falciparum [1])	EC50 (Plasmodium falciparum [2])
O=C(N1CCCC1)C12CC3CC(CC(C3)C1)C2	8.15 µM	7.65 µM
CC(=O)NC(c1cccs1)c1cc(Cl)c2cccnc2c1O (centres undefined)	> 15 µM	5.89 µM
CC(C)=CCN1CCC(C(=O)Nc2ccc(-c3nc4ccccc4[nH]3)cc2)CC1	1.34 µM	6.76 µM
CCOc1ccc(C2N(C)c3ccccc3N2C)cc1	> 15 µM	> 15 µM
Nc1ccc(-c2nc3cc(Oc4ccc5[nH]c(-c6ccc(N)cc6)nc5c4)ccc3[nH]2)cc1	1.47 µM	1.69 µM
CCOC(=O)c1cnc2ccc(OC)cc2c1Nc1ccc(N2CCN(C)CC2)cc1	0.575 µM	1.29 µM
CCN1C=CC(=Cc2ccc3cc(C)ccc3[n+]2C)C=C1	0.265 µM	0.106 µM
O=C(CN1CCN(C2CCCC2)CC1)Nc1ccc([N+](=O)[O-])cc1C(=O)Nc1ccccc1F	> 15 µM	> 15 µM
CCc1c(C)c2cc3c(c(C)c2oc1=O)OCN(CCc1ccc(OC)cc1)C3	> 15 µM	0.514 µM
Cc1ccc(C)c(Oc2c(C(F)(F)F)oc3c(CN4CCN(Cc5ccccc5)CC4)c(O)ccc3c2=O)c1	0.612 µM	0.274 µM
CCCOc1cccc(C2c3c(-c4ccccc4O)n[nH]c3C(=O)N2CCCOCC)c1 (centres undefined)	> 15 µM	7.84 µM
CCCOc1ccc(C(NC(=O)CCl)NC(=O)CCl)cc1OC	3.99 µM	3.74 µM
Cc1ccc(C(=O)N2CCc3ccccc32)cc1Br	> 15 µM	> 15 µM
C[n+]1ccc(/C=C/c2ccc3c(c2)OCO3)cc1	3.47 µM	2.39 µM
Cc1ccc(S(=O)(=O)Nc2ccc(Nc3nc(C)cc(N4CCCC4)n3)cc2)cc1	0.919 µM	7.18 µM
CCCCOc1ccc(C(=O)Nc2ccccc2Oc2ccccc2)cc1	> 15 µM	1.75 µM
COc1cccc(NC2=C(N3CCCCC3)C(=O)c3ccccc3C2=O)c1	0.052 µM	0.153 µM
CCN(CC)S(=O)(=O)c1ccc(C(=O)Nc2nc(-c3ccccc3OC)cs2)cc1	> 15 µM	> 15 µM
Oc1c(C(Nc2ccccn2)c2cccc(OC3CCCC3)c2)ccc2cccnc12 (centres undefined)	3.71 µM	4.16 µM
Cc1ccnc(NC(c2ccccc2F)c2ccc3cccnc3c2O)c1 (centres undefined)	1.86 µM	1.5 µM
CCCCN(C)S(=O)(=O)c1ccc(C(=O)N(Cc2ccccn2)c2nc3ccccc3s2)cc1	> 15 µM	> 15 µM
COc1cccc(OC)c1CN1CCC(C(Cc2ccccc2F)N(C)C(=O)c2cccs2)CC1 (centres undefined)	7.28 µM	4.22 µM

SMILES	EC50 (Plasmodium falciparum [1])	EC50 (Plasmodium falciparum [2])
COc1ccc(Nc2cc(C)nc(N3CCN(C(=O)c4ccccc4C(F)(F)F)CC3)n2)cc1	3.59 µM	1.57 µM
COC(=O)c1sc2ccccc2c1NC(=O)c1cccc(Br)c1	> 15 µM	> 15 µM
CCOC(=O)C1=C(CN(C)c2ccc(F)cc2)NC(=O)NC1c1ccc(Cl)cc1 (centres undefined)	> 15 µM	6.3 µM
Cc1ccc2c(c1)c(-c1ccccc1)c(-c1ccccc1)n2CC(O)CNCCc1ccccc1 (centres undefined)	1.41 µM	0.602 µM
CCOc1cc2c(cc1OCC)C(c1cc(Cl)c(O)c(OCC)c1)NCC2 (centres undefined)	3.01 µM	1.76 µM
C#CCN(CC=C)Cc1nc(-c2cc(OC)ccc2OC)oc1C	> 15 µM	> 15 µM
CCCCCCCOC(=O)c1[nH]c2c(c1C)C(=O)CC(c1ccco1)C2 (centres undefined)	2.01 µM	1.19 µM
O=C(Nc1ccc(N2CCCCC2)c(Cl)c1)c1ccc(F)cc1	> 15 µM	0.801 µM
Cc1ccc(C)c(NC(=O)CSc2ccc(Cl)cc2)c1	> 15 µM	> 15 µM
CC1(C)Cc2ccccc2C(NCC(=O)O)=N1	> 15 µM	> 15 µM
CC(C(=O)c1ccc(-c2ccccc2)cc1)[n+]1ccccc1 (centres undefined)	7.02 µM	4 µM
CCOc1ccc(CCNC(=O)Nc2cc(C(F)(F)F)cc(C(F)(F)F)c2)cc1OC	2.83 µM	5.6 µM
Cc1cccc(-c2c3c(=O)n(C)c(=O)n(C)c3cn2-c2cc(Cl)ccc2O)c1	> 15 µM	> 15 µM
CCOc1ccc(-c2nonc2NC(=O)c2ccc(C)cc2)cc1OCC	> 15 µM	> 15 µM
O=C(Nc1cccc(C2=NCCN2)c1)Nc1cccc(C2=NCCN2)c1	1.89 µM	0.23 µM
CCN(C(=O)Nc1ccccc1OC)c1nc(-c2ccccc2)cs1	> 15 µM	> 15 µM
CC(=O)Oc1ccc2ccccc2c1C(NC(=O)C(C)C)c1ccc(Cl)cc1 (centres undefined)	4.03 µM	4.46 µM
Cc1ccc(C(=O)Nc2ccc3c(c2)N(S(=O)(=O)c2ccc(F)cc2)CCC3)cc1	> 15 µM	> 15 µM
CCOC(=O)c1cnc2c(C(F)(F)F)cccc2c1Nc1cc(C)ccc1O	2.53 µM	3.09 µM
Cc1ccc(Nc2nc(N/N=C/c3ccc(/C=N/Nc4nc(Nc5ccc(C)cc5)nc(N5CCOCC5)n4)cc3)nc(N3CCOCC3)n2)cc1	1.58 µM	1.43 µM
Cn1c2c(c(=N)c3c1CCC3)CCCC2	2.39 µM	5.79 µM
COc1ccccc1CCN1COc2c(cc3c(C)c(C)c(=O)oc3c2C)C1	1.5 µM	0.49 µM

SMILES	EC50 (Plasmodium falciparum [1])	EC50 (Plasmodium falciparum [2])
CC(=O)Oc1ccccc1C(=O)Nc1cccc(C(F)(F)F)c1	2.72 µM	2.66 µM
O=C1c2ccc3c4c(ccc(c24)C(=O)N1CCO)C(=O)N(CCO)C3=O	> 15 µM	2.7 µM
CCCCN(C)C(=O)C1c2ccccc2C(=O)N(CC(C)C)C1c1cccs1 (centres undefined)	1.52 µM	1.74 µM
COc1ccc(Cl)cc1NC(=S)N1CCN(c2ccc(C#N)cc2)CC1	0.857 µM	1.29 µM
COCc1cc(CN2CCN(c3cccc(C(F)(F)F)c3)CC2)c(O)c2ncccc12	1.82 µM	2.25 µM
CCc1ccc(NC(=O)C2c3ccccc3C(=O)N(C3CCCC3)C2c2cccs2)cc1 (centres undefined)	1.83 µM	1.87 µM
C[n+]1ccccc1/C=C/c1ccc(O)cc1	3.18 µM	3.28 µM
CC[n+]1cccc(-c2nc3ccccc3s2)c1	7.66 µM	5.92 µM
CCN1CCN(c2cc(C)c3cc(NC(=S)NCc4cc(OC)ccc4OC)ccc3n2)CC1	3.07 µM	9.01 µM
COc1ccc(-c2nnc3c4ccccc4c(C)nn23)cc1S(=O)(=O)N1CCCCC1	> 15 µM	> 15 µM
Cc1ccc(Nc2cc(C)nc(Nc3ccc(NS(=O)(=O)c4ccc(Cl)cc4)cc3)n2)cc1	0.432 µM	> 15 µM
CCOc1ccc2c(c1)CN(Cc1ccc(Cl)cc1)CO2	1.49 µM	0.284 µM
CC(C)c1ccccc1Oc1c(C(F)(F)F)oc2c(CN3CCCC3)c(O)ccc2c1=O	1.58 µM	1 µM
COc1ccc(Nc2nc(NCc3ccccc3)c3ccccc3n2)cc1	1.31 µM	7.39 µM
CCOc1ccc(CCNC(=O)Nc2ccc(F)cc2)cc1OCC	4.48 µM	> 15 µM
CCOc1c(Br)cc(C2C(C(=O)OC)=CN(C(C)C)C=C2C(=O)OC)cc1OC	4.03 µM	3.44 µM
CCOc1ccc(Nc2cc(C)nc(-n3nc(C)cc3C)n2)cc1	5.02 µM	4.99 µM
Cc1cc(Nc2ccc(C(C)C)cc2)n2ncnc2n1	0.502 µM	0.961 µM
CCc1c(C)nc(-n2nc(C)cc2NC(=O)c2ccccc2F)nc1O	> 15 µM	> 15 µM
O=C(Nc1cc(OCC(F)(F)F)cc(OCC(F)(F)C(F)F)c1)c1cccnc1	3.84 µM	4.42 µM
CSc1cccc(NC(=O)N2CCC(CO)(Cc3ccccc3Cl)CC2)c1	> 15 µM	> 15 µM
Oc1ccc(Cl)cc1Nc1ncnc2ccc(Br)cc12	> 15 µM	3.85 µM

SMILES	EC50 (Plasmodium falciparum [1])	EC50 (Plasmodium falciparum [2])
FC(F)(F)c1cccc(NC(=S)Nc2cccc(Cl)c2)c1	3.79 µM	2.95 µM
Cc1ccc(C2Nn3c(nnc3-c3ccccc3)SC2C(=O)N2CCCCCC2)cc1 (centres undefined)	2.94 µM	3.91 µM
COc1ccc2c(c1OC)C(=O)N1c3ccccc3N=C(c3ccc([N+](=O)[O-])cc3)CC21 (centres undefined)	> 15 µM	> 15 µM
CCOc1ccc2nc(N(Cc3cccnc3)C(=O)c3cccs3)sc2c1	6.99 µM	7 µM
CCCCCCCCCn1ccc(=N)cc1	0.835 µM	0.465 µM
Cc1ccc(NC(=O)CSc2nc3c(cnn3CCO)c(=O)[nH]2)cc1	> 15 µM	1.91 µM
O=C(Nc1ccccc1F)C1c2ccccc2C(=O)N(C2CCCC2)C1c1cccs1 (centres undefined)	1.77 µM	2.55 µM
O=C(NC(c1ccc([N+](=O)[O-])cc1)c1cc(Cl)c2cccnc2c1O)c1cccnc1 (centres undefined)	2.51 µM	1.52 µM
CCS(=O)(=O)c1ccc(OC)c(/N=N/c2ccc(O)c3ncccc23)c1	4.96 µM	> 15 µM
Oc1c(C(Nc2ccccn2)c2c(F)cccc2Cl)cc(Cl)c2cccnc12 (centres undefined)	> 15 µM	> 15 µM
CCCCc1ccc(Nc2cc(C)nc(-n3nc(C)cc3C)n2)cc1	> 15 µM	4.64 µM
CCN(CC)CCN1C(=O)c2oc3ccccc3c(=O)c2C1c1cccc(OC)c1 (centres undefined)	0.995 µM	1.05 µM
COc1ccccc1[N+]1=C2CCCCN2C(O)(c2ccc(Cl)cc2)C1 (centres undefined)	> 15 µM	7.71 µM
CC(C)(C)C1CCc2onc(C(=O)Nc3cc(Br)ccc3O)c2C1 (centres undefined)	0.726 µM	0.419 µM
Cc1ccc(NC(=O)C2(c3ccc([N+](=O)[O-])cc3)CCCC2)cc1	> 15 µM	3.82 µM
COc1cccc(-c2nn(C)c3sc(C(=O)NCCN4CCN(Cc5ccccc5)CC4)cc23)c1	> 15 µM	> 15 µM
COc1ccc(/C=C2\Oc3c(ccc(O)c3CN3CCCCC3)C2=O)cc1	1.63 µM	0.846 µM
COc1ccc(N2CCN(CC(O)COc3ccc(C)cc3C(C)(C)C)CC2)cc1 (centres undefined)	> 15 µM	> 15 µM
Cc1c(C)n(CC(O)CNC2CCCCC2C)c2ccccc12 (centres undefined)	0.527 µM	0.35 µM
COc1ccc(NC(=O)CSc2nc(-c3ccccc3Cl)ns2)c(OC)c1	5.43 µM	4.59 µM
C=C(C)CCC(C)N1CCC(N2CCC(C(=O)NCCc3ccccc3)CC2)CC1 (centres undefined)	4.26 µM	> 15 µM
